# Source: PubChem BioAssay AID2060898 (Molecular Pharmacology Branch, DTP, NCI, 2025)
# System: 616215-338-R-J1-PDC complex spheroid viability
# Experiment: Anticancer human tumor 616215-338-R-J1-PDC patient-derived colon adenocarcinoma cell line growth inhibition [RAS]
# Conditions: for IC50: curve of first compound; for viability, T/C: stronger effect = lower value
# In short: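 Multi-cell-type spheroids: tumor cells plus HUVEC endothelial cells and mesenchymal stem cells. RAS-pathway inhibitors were combined with targeted agents, each dosed in half-log steps down from clinical Cmax, or from 10 microM when Cmax was unknown.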
# [1] = second compound 0.00316 µM, first compound 0.00316 µM
# [2] = second compound 0.00316 µM, first compound 0.01 µM
# [3] = second compound 0.00316 µM, first compound 0.0316 µM
# [4] = second compound 0.00316 µM, first compound 0.1 µM
# [5] = second compound 0.00316 µM, first compound 0.316 µM
# [6] = second compound 0.00316 µM, first compound 1 µM
# [7] = second compound 0.01 µM, first compound 0.00316 µM
# [8] = second compound 0.01 µM, first compound 0.01 µM
# [9] = second compound 0.01 µM, first compound 0.0316 µM
# [10] = second compound 0.01 µM, first compound 0.1 µM
# [11] = second compound 0.01 µM, first compound 0.316 µM
# [12] = second compound 0.01 µM, first compound 1 µM
# [13] = second compound 0.0316 µM, first compound 0.00316 µM
# [14] = second compound 0.0316 µM, first compound 0.01 µM
# [15] = second compound 0.0316 µM, first compound 0.0316 µM
# [16] = second compound 0.0316 µM, first compound 0.1 µM
# [17] = second compound 0.0316 µM, first compound 0.316 µM
# [18] = second compound 0.0316 µM, first compound 1 µM
# [19] = second compound 0.1 µM, first compound 0.00316 µM
# [20] = second compound 0.1 µM, first compound 0.01 µM
# [21] = second compound 0.1 µM, first compound 0.0316 µM
# [22] = second compound 0.1 µM, first compound 0.1 µM
# [23] = second compound 0.1 µM, first compound 0.316 µM
# [24] = second compound 0.1 µM, first compound 1 µM
# [25] = second compound 0.316 µM, first compound 0.00316 µM
# [26] = second compound 0.316 µM, first compound 0.01 µM
# [27] = second compound 0.316 µM, first compound 0.0316 µM
# [28] = second compound 0.316 µM, first compound 0.1 µM
# [29] = second compound 0.316 µM, first compound 0.316 µM
# [30] = second compound 0.316 µM, first compound 1 µM
# [31] = second compound 1 µM, first compound 0.00316 µM
# [32] = second compound 1 µM, first compound 0.01 µM
# [33] = second compound 1 µM, first compound 0.0316 µM
# [34] = second compound 1 µM, first compound 0.1 µM
# [35] = second compound 1 µM, first compound 0.316 µM
# [36] = second compound 1 µM, first compound 1 µM
# 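Note: spheroids exposed to agents for seven days before viability readout.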
# 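Throughout, for viability, T/C: 100% = DMSO vehicle control viability.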
smiles,measurement,setting,value
Nc1ccn(C2OC(CO)C(O)C2(F)F)c(=O)n1 (centres undefined) + C=CC(=O)N1CCN(c2nc(OCC3CCCN3C)nc3c(F)c(-c4nc(N)cc(C)c4C(F)(F)F)c(Cl)cc23)C(C)C1,IC50,second compound 0.00316 µM,11.8 nM
same,IC50,second compound 0.01 µM,11.7 nM
same,IC50,second compound 0.0316 µM,14.7 nM
same,IC50,second compound 0.1 µM,15.4 nM
same,IC50,second compound 0.316 µM,8.51 nM
same,IC50,second compound 1 µM,9.78 nM
same,"viability, T/C",[1],96.1%
same,"viability, T/C",[2],53.2%
same,"viability, T/C",[3],29.3%
same,"viability, T/C",[4],14.4%
same,"viability, T/C",[5],14.2%
same,"viability, T/C",[6],17.6%
same,"viability, T/C",[7],109%
same,"viability, T/C",[8],54.9%
same,"viability, T/C",[9],18.7%
same,"viability, T/C",[10],15.8%
same,"viability, T/C",[11],12.9%
same,"viability, T/C",[12],16.3%
same,"viability, T/C",[13],108%
same,"viability, T/C",[14],65.1%
same,"viability, T/C",[15],20.1%
same,"viability, T/C",[16],13%
same,"viability, T/C",[17],9.07%
same,"viability, T/C",[18],16.4%
same,"viability, T/C",[19],88.9%
same,"viability, T/C",[20],64%
same,"viability, T/C",[21],27%
same,"viability, T/C",[22],14%
same,"viability, T/C",[23],13.4%
same,"viability, T/C",[24],14.6%
same,"viability, T/C",[25],111%
same,"viability, T/C",[26],39.9%
same,"viability, T/C",[27],21%
same,"viability, T/C",[28],11.6%
same,"viability, T/C",[29],14.9%
same,"viability, T/C",[30],20.7%
same,"viability, T/C",[31],90.7%
same,"viability, T/C",[32],49%
same,"viability, T/C",[33],25.6%
same,"viability, T/C",[34],16.8%
same,"viability, T/C",[35],12.6%
same,"viability, T/C",[36],17.6%
O=C(c1ccc(F)c(F)c1Nc1ccc(I)cc1F)N1CC(O)([C@@H]2CCCCN2)C1 + C=CC(=O)N1CCN(c2nc(OCC3CCCN3C)nc3c(F)c(-c4nc(N)cc(C)c4C(F)(F)F)c(Cl)cc23)C(C)C1,IC50,second compound 0.00316 µM,62.1 nM
same,IC50,second compound 0.01 µM,70.7 nM
same,IC50,second compound 0.0316 µM,72.1 nM
same,IC50,second compound 0.1 µM,89.4 nM
same,IC50,second compound 0.316 µM,67.4 nM
same,IC50,second compound 1 µM,61.3 nM
same,"viability, T/C",[1],114%
same,"viability, T/C",[2],112%
same,"viability, T/C",[3],65.3%
same,"viability, T/C",[4],38.6%
same,"viability, T/C",[5],12.9%
same,"viability, T/C",[6],4.36%
same,"viability, T/C",[7],98.8%
same,"viability, T/C",[8],108%
same,"viability, T/C",[9],81.7%
same,"viability, T/C",[10],36%
same,"viability, T/C",[11],13.1%
same,"viability, T/C",[12],6.62%
same,"viability, T/C",[13],110%
same,"viability, T/C",[14],115%
same,"viability, T/C",[15],74.7%
same,"viability, T/C",[16],40%
same,"viability, T/C",[17],15%
same,"viability, T/C",[18],3.89%
same,"viability, T/C",[19],106%
same,"viability, T/C",[20],116%
same,"viability, T/C",[21],82.5%
same,"viability, T/C",[22],47.5%
same,"viability, T/C",[23],16.7%
same,"viability, T/C",[24],6.51%
same,"viability, T/C",[25],100%
same,"viability, T/C",[26],105%
same,"viability, T/C",[27],80.6%
same,"viability, T/C",[28],33.1%
same,"viability, T/C",[29],13.9%
same,"viability, T/C",[30],4.52%
same,"viability, T/C",[31],102%
same,"viability, T/C",[32],101%
same,"viability, T/C",[33],72.2%
same,"viability, T/C",[34],31.7%
same,"viability, T/C",[35],18.8%
same,"viability, T/C",[36],5.31%
